Where “and” joins values, the source holds several entries; their conditions need not be identical. Equal entries are not always repeated.
Columns and labels:
Neuro2a cells = assay: MTT cytotoxicity assay; format: cell-based; conditions: for MTT cell viability, compound alone, Fig. 3f: Neuro2a, final small molecule concentration 10 µM, 24 h, vehicle = 100% viable, individual replicates, 10 µM
Experimental: (§1) In all, 90 µL of Neuro2a cells were plated on clear 96 well plates (Falcon 353072) at 6000 cells per well and given 24 h to adhere to the plate. Subsequent treatment consisted of PHF samples that were co-incubated with or without 100 µM of small molecules for 48 h at 37 °C, with 10 µl applied per well for a final small molecule concentration of 10 µM. After another 24-h incubation at 37 °C, 20 µl of Thiazolyl Blue Tetrazolium Bromide MTT dye (Sigma; 5 mg/ml stock in DPBS) was added to each well and further incubated for 3.5 h at 37 °C. The assay was arrested by replacement of all media with 100% DMSO and transferred to a SpectraMax MF reader. Background 700 nm readings were subtracted from the absorbance readings at 570 nm. Cells treated with 100% DMSO were designated as 0% viable and those treated only with vehicle were designated as 100% viable. Other well readings were normalized to these values.

MTT cytotoxicity assay = format: cell-based; conditions: mouse, Neuro2a cells, Neuro2a; final small molecule concentration 10 µM; 24 h; vehicle = 100% viable; individual replicates; read-out: MTT cell viability, compound alone, Fig. 3f
Experimental: as §1

[1] = molecular target: T1, AD brain-derived tau fibrils (Homo sapiens, UniProt P10636); assay: Negative stain EM and quantitative EM (qEM) of tau fibrils after compound treatment; format: biochemical
T1 sequence (P10636 623-695 limits assumed): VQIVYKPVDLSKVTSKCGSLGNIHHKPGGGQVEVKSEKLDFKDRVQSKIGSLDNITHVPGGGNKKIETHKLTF
Experimental: Negatively stained EM Grids were prepared by depositing 6 µl of sample on formvar/carbon-coated copper grids (400 mesh) for 3 min. The sample was rapidly wicked using filter paper without drying the grid and stained with 1% uranyl acetate for 2 min. […] Fibrils were counted from collections of 33 micrographs (in triplicate) for each experimental condition.

[2] = molecular target: brain-purified AD-tau fibrils in HEK293T tau biosensor cells (Homo sapiens, UniProt P10636); assay: Tau biosensor cell seeding assay, dose-dependent inhibition with brain-purified AD-tau fibrils; format: cell-based; conditions: for Number of seeded aggregates, Supp. Fig. 7: individual replicates
Sequence of brain-purified AD-tau fibrils in HEK293T tau biosensor cells (P10636 623-695 limits assumed): as above
Experimental: (§2) Human autopsy samples were obtained by the Mayo Clinic Brain Bank and UCLA Pathology Department according to HHS regulations from patients consenting to autopsy. Samples were provided to the researchers of this study as anonymized tissues. For purification of paired helical filaments (PHFs) and straight filaments (SFs) from AD brain tissue, extractions were performed according to the previously published protocol without any modifications. […] For biosensor seeding assays with crude AD brain extracts, fresh-frozen tissue from neuropathologically confirmed AD cases was thawed and cut into a 0.2–0.3 g sections. Tissue was manually homogenized in a 15 ml disposable tube in 1 ml of 50 mM Tris, pH 7.4 with 150 mM NaCl, and then aliquoted to PCR tubes and sonicated in a cuphorn bath for 120 min under 30% power at 4 °C in a recirculating ice water bath, according to reference.
(§3) HEK293T cell lines stably expressing tau-K18 P301S-eYFP were obtained from Marc Diamond[25] and used without further characterization or authentication. […] Inhibitors were dissolved in DMSO. […] After twenty minutes, 10 µl of fibrils were added to 90 µl of tau biosensor cells. The number of seeded aggregates was determined by imaging the entire well of a 96-well plate in triplicate using a Celigo Image Cytometer (Nexcelom) in the YFP channel. The number of aggregates in a given image was determined using an ImageJ 2.3.0[50] script, which subtracts the background fluorescence from unseeded cells, and then counts the number of aggregates as peaks with fluorescence above the background using the built-in Particle Analyzer. The number of aggregates was normalized to the confluence of each well, and dose-response plots were generated by calculating the average and standard deviations from triplicate measurements.

[3] = molecular target: T1, AD brain-derived tau fibrils; assay: Western blot of insoluble tau after compound treatment; format: biochemical; conditions: 72 h at 37 °C
Experimental: Proteins were transferred from gel to nitrocellulose membrane using an iBLOT2 system. The membrane was blocked for 1 h in TBST with 5% milk and washed with TBST three times. The membrane was then incubated with primary antibody (anti-tau A0024 (Dako), 1:4000 dilution in 2% milk/TBST solution) for 1 h, washed three times with TBST, incubated with horseradish peroxidase-conjugated secondary antibody (goat anti-mouse IgG H and L (HRP); 1:5000 Dilution in 2% milk/TBST), and washed three times in TBST.

[4] = molecular target: crude AD brain extracts (tau seeds) in HEK293T tau biosensor cells (Homo sapiens, UniProt P10636); assay: Tau biosensor cell seeding assay, screen with crude AD brain extracts; format: cell-based; conditions: 10 μM inhibitor on cells, seeds pre-incubated 16–18 h at 4 °C, individual replicates (n=3), DMSO control 10734.9/12808.5/11145.3
Sequence of crude AD brain extracts (tau seeds) in HEK293T tau biosensor cells (P10636 623-695 limits assumed): as above
Description: From the in silico screen, compounds were ranked and 46 were selected for further experimental validation based on the total binding energy of the ligand/fibril complex. The experimental assessment consisted of direct measures of fibril disassembly (Fig. 2d, e and Supplementary Table 3) and assessment of the seeding capability of the products of disassembled AD tau fibrils in a biosensor cell assay. Disaggregating molecules that produce active seeds are undesirable for therapy and are excluded from further study. HEK293T cells expressing CFP- or YFP-fused tau are transduced with exogenous AD tau fibrils. Externally applied AD-tau fibrils then induce the aggregation of the endogenous fluorescent tau, resulting in the formation of FRET-positive intracellular aggregates, visible as bright puncta by fluorescence microscopy (Fig. 2f). Automated image analysis of visible puncta provides an objective quantification of seeded aggregation. […] Although biosensors may be limited in reporting structural characteristics of fibril progeny, they offer exquisitely sensitive measures of tau seeding activity—the ability for fibrils to recruit monomeric protein into fibrillar form, which is thought to be the mechanism for tau spreading in AD.
as §2, §3

[5] = inhibitor concentration 10 (µM)
[6] = inhibitor concentration 40 (µM)

O=C1c2ccccc2C(=O)N1c1nc2nccc(-c3ccccc3)n2n1 [CNS-2, 2-(7-phenyl[1,2,4]triazolo[1,5-a]pyrimidin-2-yl)-1H-isoindole-1,3(2H)-dione]
MTT cell viability, compound alone, Fig. 3f (Neuro2a cells): 89.5134% and 84.5916% | viability at 24 h, 10 µM (MTT cytotoxicity assay): 97.5%

Cc1cc(C)c(NC(=O)Cn2nc3c4c(cccc4c2=O)-c2ccccc2-3)c(C)c1 [CNS-11, N-mesityl-2-(3-oxoindeno[1,2,3-de]phthalazin-2(3H)-yl)acetamide]
Neuronal cytotoxicity of compound (Neuro2a cells; Neuro 2a (N2a) cells, MTT): significant cytotoxicity | MTT cell viability, compound alone, Fig. 3f (Neuro2a cells): 62.1272% and 57.0691% | viability at 24 h, 10 µM (MTT cytotoxicity assay): 60.2%

Cc1cc(C)cc(N2C(=O)N(c3cccc(Cl)c3)C3CS(=O)(=O)CC32)c1 (stereo not shown) [CNS-12, 1-(3-chlorophenyl)-3-(3,5-dimethylphenyl)tetrahydro-1H-thieno[3,4-d]imidazol-2(3H)-one 5,5-dioxide]
MTT cell viability, compound alone, Fig. 3f (Neuro2a cells): 107.797% and 97.7194% and 77.9839%

O=C(Nc1cccc(C(F)(F)F)c1)N1c2ccccc2Sc2ccccc21 [CNS-17, N-[3-(trifluoromethyl)phenyl]-10H-phenothiazine-10-carboxamide]
Fibril reduction by qEM [1]: a corresponding reduction in fibril density was not seen by qEM | Quantitation of fibril number on EM images (qEM), Fig. 3c ([1]; relative scale, fibrils alone about 1, individual replicates of 33 micrographs): 0.7296 and 1.4265 and 0.6447 | IC50 ([2]; brain-purified AD-tau fibrils, read-out: IC50, inhibition of seeding efficiency in biosensor cells): < 5 µM | Number of seeded aggregates, Supp. Fig. 7 ([2]; inhibitor concentration 1 (µM)): 12634.1 and 17143.6 and 11095.2 | Number of seeded aggregates, Supp. Fig. 7 ([2]; inhibitor concentration 2 (µM)): 9200.81 and 9676.73 and 6081.22 | Number of seeded aggregates, Supp. Fig. 7 ([2]; inhibitor concentration 5 (µM)): 9500.56 and 10385 and 5182.56 | Number of seeded aggregates, Supp. Fig. 7 [2, 5]: 11886 and 11650.5 and 6860.55 | Number of seeded aggregates, Supp. Fig. 7 [2, 6]: 3439.45 and 1968.58 and 2178.79 | Reduction of insoluble tau by Western blot [3]: reduction in insoluble tau species | MTT cell viability, compound alone, Fig. 3f (Neuro2a cells): 66.6981% and 63.9984% | viability at 24 h, 10 µM (MTT cytotoxicity assay): 74.1% | Number of seeded aggregates in tau biosensor cells (normalized to confluence), Fig. 2e ([4]; listed as 6870810): 4788.26 and 4837.93 and 6713.19

O=C(NC1CCN(CCCCC2(C(=O)NCC(F)(F)F)c3ccccc3-c3ccccc32)CC1)c1ccccc1-c1ccc(C(F)(F)F)cc1 [FDA-A2, Lomitipide]
Number of seeded aggregates, Supp. Fig. 7 ([2]; inhibitor concentration 1 (µM)): 9648.53 and 7383.58 and 7455.51 | Number of seeded aggregates, Supp. Fig. 7 ([2]; inhibitor concentration 2 (µM)): 5514.78 and 9418.9 and 7841.07 | Number of seeded aggregates, Supp. Fig. 7 ([2]; inhibitor concentration 5 (µM)): 11341.6 and 15697.2 and 9575.47 | Number of seeded aggregates, Supp. Fig. 7 [2, 5]: 4892.73 and 7401.62 and 3914.28 | Number of seeded aggregates, Supp. Fig. 7 [2, 6]: 2.016 and 15.6712 and 4.096 | Number of seeded aggregates in tau biosensor cells (normalized to confluence), Fig. 2e ([4]; listed as lomitapide): 1844.31 and 2433.57 and 2611.16

CC(=O)c1ccc(S(=O)(=O)NC(=O)NC2CCCCC2)cc1 [FDA-R-8, Acetohexamide]
Number of seeded aggregates in tau biosensor cells (normalized to confluence), Fig. 2e ([4]; listed as acetohexamide aka Dymelor): 9289.39 and 6525.19 and 13238.7

CC1=C(C/C=C(\C)CCC[C@H](C)CCC[C@H](C)CCCC(C)C)C(=O)c2ccccc2C1=O [FDA-R-9, Phytonadione]
Number of seeded aggregates in tau biosensor cells (normalized to confluence), Fig. 2e [4]: 7414.6 and 8137.54 and 11548.1

CCC(NC(C)C)C(O)c1ccc(O)c(O)c1 (stereo not shown) [FDA-R-14, Isoetharine]
Number of seeded aggregates in tau biosensor cells (normalized to confluence), Fig. 2e ([4]; listed as Isoetharine mesylate): 7986.42 and 10421.3 and 17350.6

CCCCCCCCCC(=O)OCCN1CCN(CCCN2c3ccccc3Sc3ccc(C(F)(F)F)cc32)CC1 [FDA-R-15, Prolixin decanoate]
Number of seeded aggregates in tau biosensor cells (normalized to confluence), Fig. 2e ([4]; listed as Prolixin decanoate aka fluphenazine): 15859.2 and 19243.3 and 27665.8

O=[N+]([O-])O[C@@H]1CO[C@H]2[C@@H]1OC[C@@H]2O [FDA-R-17, Isosorbide Mononitrate]
Number of seeded aggregates in tau biosensor cells (normalized to confluence), Fig. 2e ([4]; listed as isosorbide mononitrate mw): 7858.85 and 13647.5 and 18697.1

CC(C)OC(=O)CCC/C=C\C[C@@H]1[C@@H](/C=C/[C@@H](O)COc2cccc(C(F)(F)F)c2)[C@H](O)C[C@@H]1O [FDA-R-18, Travoprost]
Number of seeded aggregates in tau biosensor cells (normalized to confluence), Fig. 2e [4]: 5152.95 and 6033.26 and 10826.5

C[C@@H]1C/C=C/C=C/C=C/C=C/[C@H](O[C@@H]2O[C@H](C)[C@@H](O)[C@H](N)[C@@H]2O)C[C@@H]2O[C@](O)(C[C@@H](O)C[C@H]3O[C@@H]3/C=C/C(=O)O1)C[C@H](O)[C@H]2C(=O)O [FDA-R-19, Natamycin]
Number of seeded aggregates in tau biosensor cells (normalized to confluence), Fig. 2e [4]: 9211.55 and 6199.61 and 13007.3

O=C(O)c1cc(=O)c2c(OCC(O)COc3cccc4oc(C(=O)O)cc(=O)c34)cccc2o1 [FDA-R-23, Sodium chromoglycate]
Number of seeded aggregates in tau biosensor cells (normalized to confluence), Fig. 2e ([4]; listed as cromolyn sodium): 8238.89 and 9556.51 and 14800.8

CN(C)CCCN1c2ccccc2CCc2ccccc21 [FDA-R-24, Imipramine]
Number of seeded aggregates in tau biosensor cells (normalized to confluence), Fig. 2e [4]: 13643.9

CN(C)S(=O)(=O)c1ccc2c(c1)/C(=C/c1cc3c([nH]1)CCCC3)C(=O)N2 [su6656]
Number of seeded aggregates in tau biosensor cells (normalized to confluence), Fig. 2e [4]: 5170.49 and 6311.14 and 10607

Source: paper PMC9481533, “Structure-based discovery of small molecules that disaggregate Alzheimer’s disease tissue derived tau fibrils in vitro” (Nature Communications, 2022)
